This note sets out measurements from ChEMBL document CHEMBL1201862, “PubChem BioAssay data set” (2004).

Holding throughout (experiment): NCI tumour cell line growth inhibition, 48 h
Assay [1] deals with A549.
Assay [2] relates to CCRF-CEM.
Assay [3] deals with DU-145.
Assay [4] concerns HCT-116.
Assay [5] deals with HL-60.
In assay [6] the test system is HT-29.
In assay [7] the test system is Hs-578T.
Assay [8] deals with MCF7.
The subject of assay [9] is MDA-MB-435.
Assay [10] relates to NCI-H522.
In assay [11] the test system is OVCAR-4.
In assay [12] the test system is OVCAR-5.
For assay [13], the system named is SK-MEL-28.
Assay [14] relates to SK-MEL-5.
Assay [15] deals with SN12C.
Assay [16] deals with SNB-75.
The test system of assay [17] is T47D.
Assay [18] has as its system U-251.
For assay [19], the system named is IGROV-1.
In assay [20] the test system is MDA-MB-231.

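Protocol summary: plate cells (96-well), add compound at 5 concentrations, incubate 48 h, interpolate endpoints linearly. The concentration for 50% growth inhibition is given as GI50.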 The source made the active and inactive calls. No stated cut-off is given here; in the data, active = GI50 up to about 1.1 µM and inactive = higher.

In the case of `COC1(C2c3ccccc3CCN2C(=O)OC(C)(C)C)C(=O)C(c2ccccc2)=C1N(C)C` (stereo not drawn), the GI50 in assay [1] is 27.5 µM (inactive); in assay [2], 38.9 µM (inactive); in assay [3] it was 55.8 µM (inactive); in [4] it was 25.7 µM (inactive); in [5], 19.7 µM (inactive); in [6] it was 18.1 µM (inactive). In addition, the GI50 was 32.7 µM (inactive) in [7]; 44.8 µM (inactive) in [8]; 22.9 µM (inactive) in assay [9]; 21.2 µM (inactive) in assay [10]; 46.9 µM (inactive) in assay [11]; 74.5 µM (inactive) in assay [12]. Moreover, the GI50 in assay [13] is 62.4 µM (inactive); in assay [14], 20.7 µM (inactive); in assay [15], 17.1 µM (inactive); in assay [16], 43.6 µM (inactive); in [17], 53.7 µM (inactive); in assay [18] it was 37.2 µM (inactive).

For the compound `COc1ccc(OC)c(NC(=O)C(=O)Nn2c(S)nc3ccccc3c2=O)c1`, the GI50 in [1], in [2], in assay [4], in [5], in assay [6] and in [7] was > 100 µM (inactive) throughout. Besides, the GI50 is 88.1 µM (inactive) in assay [19]; > 100 µM (inactive) in assay [8]; > 100 µM (inactive) in assay [20]; > 100 µM (inactive) in assay [9]; > 100 µM (inactive) in [10]; > 100 µM (inactive) in [11]. In addition, the GI50 in assay [12], in assay [13], in assay [14], in assay [15], in [16] and in assay [17] was > 100 µM (inactive) throughout. Moreover, in assay [18], the GI50 is > 100 µM (inactive).

Consider `Cn1c(=O)c2c(nc3n2CCC(=O)N3CCCCl)n(C)c1=O`, for which the GI50 in [1], in assay [2], in assay [3], in assay [4], in [5] and in [6] was > 100 µM (inactive) in each case. In addition, the GI50 in [7], in assay [19], in [20], in assay [9], in [11] and in assay [12] was > 100 µM (inactive) throughout. The GI50 in assay [13], in [14], in [15], in assay [16], in assay [17] and in assay [18] was > 100 µM (inactive) each time.

With `COc1ccc2c(c1)CN1C(=N2)CSC1c1c(Cl)cccc1[N+](=O)[O-]` (stereo not drawn), the GI50 in assay [1] is 31.9 µM (inactive); in [4] it was 15.6 µM (inactive); in assay [5], 11.5 µM (inactive); in [6], 17.9 µM (inactive); in assay [7], 24.7 µM (inactive); in [19], 31 µM (inactive). Also, the GI50 in assay [8] is 14.4 µM (inactive); in [20] it was 16.4 µM (inactive); in assay [9] it was 20.1 µM (inactive); in assay [10], 23.7 µM (inactive); in [11], 31.5 µM (inactive); in assay [12], 26.4 µM (inactive). In addition, the GI50 in assay [13] was 18.5 µM (inactive); in [14], 12.8 µM (inactive); in [15], 17.5 µM (inactive); in assay [16] it was 27.8 µM (inactive); in assay [17] it was 31 µM (inactive); in assay [18] it was 18.7 µM (inactive).

Consider `O=C(NCc1ccc(Cl)cc1)c1cc2sccc2nc1C(F)(F)F`, for which the GI50 in assay [1] was 34.2 µM (inactive); in [2], > 100 µM (inactive); in [4], 33.3 µM (inactive); in [6], > 100 µM (inactive); in [7], 19.8 µM (inactive); in assay [19], 29.6 µM (inactive). Moreover, the GI50 in assay [8] was 61 µM (inactive); in assay [20], 31.3 µM (inactive); in assay [9], > 100 µM (inactive); in assay [10] it was 29.7 µM (inactive); in assay [11] it was 19.8 µM (inactive); in assay [12], > 100 µM (inactive). Moreover, the GI50 is 55.7 µM (inactive) in assay [13]; 49.7 µM (inactive) in [14]; 44.8 µM (inactive) in assay [15]; > 100 µM (inactive) in assay [17]; 18.9 µM (inactive) in assay [18].

Turning to `CCOC(=O)CCC(C(=O)OCC)n1nnc2cc(Nc3c(C)[n+]([O-])c4cc(Cl)ccc4[n+]3[O-])ccc21` (stereo not drawn), the GI50 is > 100 µM (inactive) in [1]; 35.6 µM (inactive) in assay [2]; > 100 µM (inactive) in assay [3]; 47.9 µM (inactive) in assay [4]; 41.3 µM (inactive) in [5]; 76 µM (inactive) in [6]. Moreover, the GI50 is > 100 µM (inactive) in [7]; > 100 µM (inactive) in [19]; 28.2 µM (inactive) in assay [8]; > 100 µM (inactive) in assay [9]; > 100 µM (inactive) in assay [10]; 77.4 µM (inactive) in [11]. The GI50 was 62.8 µM (inactive) in assay [12]; 49.8 µM (inactive) in [14]; 96.6 µM (inactive) in assay [15]; 89.3 µM (inactive) in assay [16]; 47.2 µM (inactive) in [17]; 80.4 µM (inactive) in assay [18].

With `CCOC(=O)c1nc2ccc(C(F)(F)F)cc2nc1NCc1ccc(OC)cc1`, the GI50 was 49.4 µM (inactive) in [1]; > 100 µM (inactive) in assay [2]; 53.1 µM (inactive) in assay [4]; 55.8 µM (inactive) in assay [6]; 99.5 µM (inactive) in [7]; > 100 µM (inactive) in assay [19]. Further, the GI50 in [8] is 43.2 µM (inactive); in [20], > 100 µM (inactive); in assay [9] it was > 100 µM (inactive); in assay [10], 11.9 µM (inactive); in assay [11] it was 63.7 µM (inactive); in assay [12], > 100 µM (inactive). Also, the GI50 in assay [14] was 58.2 µM (inactive); in assay [16] it was 85.9 µM (inactive); in assay [17], 80.7 µM (inactive); in assay [18], > 100 µM (inactive).

On to `CC1(C)c2ccccc2C(=O)C12CCC(=O)CC2`, for which the GI50 in [1], in [2], in assay [3], in assay [4], in [5] and in [6] was > 100 µM (inactive) in each case. Also, the GI50 in [7] was 69.8 µM (inactive); in assay [19], > 100 µM (inactive); in assay [8] it was > 100 µM (inactive); in assay [20], > 100 µM (inactive); in assay [10], > 100 µM (inactive); in assay [11], > 100 µM (inactive). For the same compound, the GI50 is > 100 µM (inactive) in assay [12]; > 100 µM (inactive) in [13]; > 10 µM (inactive) in assay [14]; > 100 µM (inactive) in assay [15]; 0.504 µM (active) in [16]; > 100 µM (inactive) in assay [17]. Moreover, in [18], the GI50 was > 100 µM (inactive).
